Experimental data reported in ChEMBL document CHEMBL1201862, “PubChem BioAssay data set” (2004).
Activity calls are given as the source filed them.

Legend:
[1] = target: Beta-2 adrenergic receptor (Homo sapiens, UniProt P07550); test: beta2AR agonists driving receptor internalization, dose response, cell-based, FAP fluorogen, flow cytometry, cherry pick 1 (AID 588763); assay type: functional
[2] = microbe, parasite or virus in culture; assay type: functional; conditions: Mycobacterium tuberculosis
[3] = target: ATP-dependent molecular chaperone HSP82 (Candida albicans (strain WO-1) (Yeast), UniProt C4YTQ8); test: loss of DOC-induced GRE-beta-galactosidase reporter signal, dose response, Hsp90 inhibitor project, S. cerevisiae, luminescence (AID 2400); assay type: functional, cell-based;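 note: beta-galactosidase luminescence from glucocorticoid response element reporter as proxy for Hsp90 function; inhibitor potency where signal loss means Hsp90 inhibition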
[4] = NIH-3T3 fibroblast cytotoxicity, dose response, cytotoxicity control, cell-based, fluorescence, Alamar Blue, secondary assay (AID 2327); assay type: functional;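 note: NIH-3T3 mouse fibroblasts cultured with fluconazole at 8 µg/mL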
[5] = C. albicans growth with fluconazole, confirmation, fluorescence, retest (AID 2467); assay type: functional, cell-based
[6] = target: Serine/threonine-protein phosphatase (Candida dubliniensis (strain CD36 / CBS 7987 / NCPF 3949 / NRRLY-17841) (Yeast), UniProt B9W6M3); test: calcineurin pathway inhibitors in yeast reporter, dose response, S. cerevisiae, CDRE-lacZ, luminescence, secondary (AID 2388); assay type: functional, cell-based;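 note: yeast reporter cells carrying a calcineurin-responsive lacZ construct stimulated with calcium chloride; luminescent beta-galactosidase reporter signal in whole cells rather than isolated phosphatase activity; potency for inhibition where a drop in reporter signal means calcineurin blockade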
[7] = growth induction of Burl-1 ts yeast mutant, dose response, counter-screen for SUMOylation pathway inhibitor project, whole organism, S. cerevisiae, luminescence (AID 463199); assay type: functional
CAAX prenyl protease 2 [8] = target: CAAX prenyl protease 2 (Homo sapiens, UniProt Q9Y256); test: human Rce1 protease inhibitors, dose response, biochemical, yeast membranes, quenched-peptide fluorescence, cherry-pick (AID 588849)
CAAX prenyl protease 2 [9] = target: CAAX prenyl protease 2 (Saccharomyces cerevisiae S288c, UniProt Q03530); assay type: biochemical
[10] = inhibitors of clade B AD8 Env fusion, dose response, cell-based, cherry-pick (AID 652062); assay type: functional;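 note: luciferase signal from cell-cell fusion driven by HIV-1 clade B AD8 Env; potency is for inhibitors of fusion seen as a drop in luminescence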
[11] = target: T1, Microphthalmia-associated transcription factor (Homo sapiens, UniProt O75030); test: TRPM1 promoter luciferase signal decrease, dose response, MITF inhibitor project, cell-based, SK-MEL-5, cherry-picked, set 3 (AID 493073); assay type: functional
T1 sequence (O75030 whole entry): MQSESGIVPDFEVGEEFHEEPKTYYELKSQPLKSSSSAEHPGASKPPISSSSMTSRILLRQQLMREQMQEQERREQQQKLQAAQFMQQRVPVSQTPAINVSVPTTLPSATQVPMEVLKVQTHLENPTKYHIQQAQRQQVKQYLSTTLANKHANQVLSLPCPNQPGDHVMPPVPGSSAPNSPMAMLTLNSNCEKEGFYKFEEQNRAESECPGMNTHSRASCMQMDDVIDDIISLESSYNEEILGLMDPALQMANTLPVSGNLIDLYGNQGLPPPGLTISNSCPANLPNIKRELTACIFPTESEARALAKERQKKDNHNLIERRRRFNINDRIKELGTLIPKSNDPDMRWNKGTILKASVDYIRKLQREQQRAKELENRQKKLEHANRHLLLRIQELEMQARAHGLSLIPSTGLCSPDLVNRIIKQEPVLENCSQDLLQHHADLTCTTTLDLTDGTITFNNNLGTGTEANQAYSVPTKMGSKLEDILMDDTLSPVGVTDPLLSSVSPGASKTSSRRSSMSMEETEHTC

Vero = test: cells; assay type: functional; conditions: Chlorocebus sabaeus
[12] = CEM21 lymphoblast cell cytotoxicity, dose response, cytotoxicity control for viral fusion inhibitor project, CellTiter-Glo luminescence, cherry-picked (AID 652042); assay type: functional, cell-based;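 note: potency for signal decrease meaning cytotoxicity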
[13] = ZM109 Env clade C HIV-1 fusion inhibitors, dose response, HeLa effector, CEM target cells, luciferase, cherry-pick (AID 652058); assay type: functional, cell-based
[14] = target: G-protein coupled receptor 55 (Homo sapiens, UniProt Q9Y2T6); test: GPR55 agonists via beta-arrestin recruitment, primary screen, imaging, U2OS cells, beta-arrestin-GFP redistribution (AID 1961); assay type: functional
[15] = inhibitors of HIV Env-driven cell fusion, dose response, cherry-pick (AID 652057); assay type: functional, cell-based
A-375 = test: A375 melanoma cell viability reduction, dose response, counter-screen for MITF modulator project, cherry-pick samples, set 2 (AID 540335); assay type: functional, cell-based; conditions: Homo sapiens
INS1 = test: beta cell apoptosis inhibitors, cytokine rescue, dose response, luminescence, retest (AID 449756); assay type: functional, cell-based; conditions: Rattus norvegicus;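 note: cell death triggered by IL-1 beta plus TNF-alpha plus IFN-gamma mixture; protective hits raise ATP signal compared with cytokine alone wells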
[16] = target: Eukaryotic translation initiation factor 4E (Mus musculus, UniProt P63073); test: eIF4E–eIF4G protein interaction inhibitors, dose response, biochemical, TR-FRET (AID 855); assay type: functional;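 note: potency for disrupting eIF4E binding to eIF4GI seen as loss of FRET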
Chain of Eukaryotic translation initiation factor 4E (P63073 whole entry): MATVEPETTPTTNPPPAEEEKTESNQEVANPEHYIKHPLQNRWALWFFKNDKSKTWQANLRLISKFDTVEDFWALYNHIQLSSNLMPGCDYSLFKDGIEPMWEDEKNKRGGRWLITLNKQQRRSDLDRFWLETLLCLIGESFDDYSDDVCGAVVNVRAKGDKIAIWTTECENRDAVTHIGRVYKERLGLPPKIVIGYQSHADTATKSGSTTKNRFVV

Chain of CAAX prenyl protease 2 (Homo sapiens, UniProt Q9Y256) (Q9Y256 whole entry): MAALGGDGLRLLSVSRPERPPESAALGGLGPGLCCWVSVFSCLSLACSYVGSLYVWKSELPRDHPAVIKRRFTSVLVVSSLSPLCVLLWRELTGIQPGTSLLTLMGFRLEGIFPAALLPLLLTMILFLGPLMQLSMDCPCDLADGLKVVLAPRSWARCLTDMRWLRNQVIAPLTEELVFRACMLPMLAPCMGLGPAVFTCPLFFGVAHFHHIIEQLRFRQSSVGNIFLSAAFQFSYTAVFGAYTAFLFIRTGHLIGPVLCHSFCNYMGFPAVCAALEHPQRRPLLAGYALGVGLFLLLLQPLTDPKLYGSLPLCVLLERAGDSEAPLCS
Chain of Beta-2 adrenergic receptor (P07550 whole entry): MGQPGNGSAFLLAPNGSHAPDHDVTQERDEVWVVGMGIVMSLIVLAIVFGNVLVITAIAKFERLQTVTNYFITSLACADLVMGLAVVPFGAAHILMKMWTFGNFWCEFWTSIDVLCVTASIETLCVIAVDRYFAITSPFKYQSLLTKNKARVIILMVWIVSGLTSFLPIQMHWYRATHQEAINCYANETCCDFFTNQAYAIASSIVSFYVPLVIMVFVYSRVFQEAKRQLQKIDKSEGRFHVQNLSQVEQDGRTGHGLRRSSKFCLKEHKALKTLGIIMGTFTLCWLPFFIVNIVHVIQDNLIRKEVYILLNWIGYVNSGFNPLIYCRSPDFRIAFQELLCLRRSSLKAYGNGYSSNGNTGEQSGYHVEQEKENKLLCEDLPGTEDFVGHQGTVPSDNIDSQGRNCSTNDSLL
Chain of G-protein coupled receptor 55 (Q9Y2T6 whole entry, the tested form may be a part): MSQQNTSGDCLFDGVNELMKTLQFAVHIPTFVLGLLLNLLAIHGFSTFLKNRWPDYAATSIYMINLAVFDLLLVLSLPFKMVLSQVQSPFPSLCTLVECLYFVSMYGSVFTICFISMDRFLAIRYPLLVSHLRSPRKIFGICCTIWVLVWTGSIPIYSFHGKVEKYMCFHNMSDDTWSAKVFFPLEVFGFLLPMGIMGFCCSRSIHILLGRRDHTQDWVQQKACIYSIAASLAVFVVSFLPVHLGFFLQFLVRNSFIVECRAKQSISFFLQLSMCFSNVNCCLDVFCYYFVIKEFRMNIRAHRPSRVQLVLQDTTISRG
Chain of ATP-dependent molecular chaperone HSP82 (C4YTQ8 whole entry): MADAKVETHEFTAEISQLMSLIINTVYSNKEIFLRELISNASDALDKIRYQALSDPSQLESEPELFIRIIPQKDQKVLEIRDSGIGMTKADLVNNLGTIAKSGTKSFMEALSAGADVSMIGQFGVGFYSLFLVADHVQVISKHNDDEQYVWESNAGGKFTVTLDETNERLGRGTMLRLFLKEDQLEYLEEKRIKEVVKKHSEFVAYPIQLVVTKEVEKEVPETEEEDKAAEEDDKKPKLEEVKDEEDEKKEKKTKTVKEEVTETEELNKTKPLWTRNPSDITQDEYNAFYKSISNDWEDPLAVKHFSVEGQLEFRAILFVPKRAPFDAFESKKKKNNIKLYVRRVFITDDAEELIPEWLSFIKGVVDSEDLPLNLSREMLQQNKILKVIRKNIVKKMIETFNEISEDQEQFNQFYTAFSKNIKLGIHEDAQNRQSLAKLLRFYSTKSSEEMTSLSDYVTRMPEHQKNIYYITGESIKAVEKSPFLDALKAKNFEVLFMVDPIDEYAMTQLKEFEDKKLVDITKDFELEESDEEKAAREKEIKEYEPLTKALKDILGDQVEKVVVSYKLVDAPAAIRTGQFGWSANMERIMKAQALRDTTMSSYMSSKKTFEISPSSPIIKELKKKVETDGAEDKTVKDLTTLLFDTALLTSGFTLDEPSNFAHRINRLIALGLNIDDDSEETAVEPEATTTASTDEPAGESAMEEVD
Chain of Serine/threonine-protein phosphatase (B9W6M3 whole entry): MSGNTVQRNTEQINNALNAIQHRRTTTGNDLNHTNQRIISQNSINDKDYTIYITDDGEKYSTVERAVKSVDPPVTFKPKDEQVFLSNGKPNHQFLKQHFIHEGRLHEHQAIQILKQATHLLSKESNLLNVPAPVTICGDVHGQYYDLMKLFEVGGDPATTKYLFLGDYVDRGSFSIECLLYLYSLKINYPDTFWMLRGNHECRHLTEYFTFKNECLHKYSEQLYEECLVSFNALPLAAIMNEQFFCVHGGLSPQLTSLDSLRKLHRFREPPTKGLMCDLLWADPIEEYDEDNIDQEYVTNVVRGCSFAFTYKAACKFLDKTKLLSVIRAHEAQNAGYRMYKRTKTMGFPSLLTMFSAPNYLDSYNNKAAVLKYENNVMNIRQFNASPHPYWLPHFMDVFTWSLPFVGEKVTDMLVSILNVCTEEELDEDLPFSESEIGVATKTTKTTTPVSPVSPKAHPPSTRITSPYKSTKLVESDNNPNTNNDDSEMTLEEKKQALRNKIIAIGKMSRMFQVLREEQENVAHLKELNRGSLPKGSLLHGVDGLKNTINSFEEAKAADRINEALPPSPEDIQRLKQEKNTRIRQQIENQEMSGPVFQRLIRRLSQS
Chain of CAAX prenyl protease 2 (Saccharomyces cerevisiae S288c, UniProt Q03530) (Q03530 whole entry, the tested form may be a part): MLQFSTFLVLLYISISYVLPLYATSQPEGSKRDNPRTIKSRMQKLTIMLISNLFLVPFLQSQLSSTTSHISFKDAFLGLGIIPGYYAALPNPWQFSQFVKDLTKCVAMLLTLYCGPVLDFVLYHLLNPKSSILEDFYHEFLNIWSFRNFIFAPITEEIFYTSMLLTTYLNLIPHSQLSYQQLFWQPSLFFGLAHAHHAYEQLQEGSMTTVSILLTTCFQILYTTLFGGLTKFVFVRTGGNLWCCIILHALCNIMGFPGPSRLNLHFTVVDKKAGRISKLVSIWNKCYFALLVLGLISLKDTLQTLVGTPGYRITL

CCn1c(COc2ccc(Cl)cc2)nnc1SCc1ccc(C#N)cc1
EC50 [1]: 2.11 µM (active)

CCc1ccc(C2c3[nH]c4ccccc4c3CCN2C(=O)c2ccc(=O)n(C)n2)cc1 (centres undefined)
CC50 [2]: > 40 µM (active) | EC50 [3]: > 160 µM (inactive) | EC50 [4]: > 160 µM (inconclusive) | EC50 [5]: 0.223 µM (active) | EC50 [6]: > 180 µM (inactive)

O=C(CSc1nnc(CNC(=O)c2ccco2)o1)Nc1nc2ccccc2s1
AC50 [7]: 54 µM (active)

O=C(OC[C@@H]1CCCN2CCCC[C@H]12)c1cc2ccccc2oc1=O
AC50 (CAAX prenyl protease 2 [8]): 55.9 µM (active) | AC50 (CAAX prenyl protease 2 [9]): 16.3 µM (active)

Cc1ccc(NC2c3ncccc3C(=O)N2C2CCCCC2)cc1C (centres undefined)
AC50 [7]: 161 µM (active)

CC1CCC(C(C)C)C(OC(=O)Cn2c(-c3ccc(Cl)cc3)[n+](C)c3ccccc32)C1 (centres undefined)
AC50 [10]: 10.8 µM (active) | AC50 [11]: 6.29 µM (active) | CC50 (Vero): > 25 µM (active) | AC50 [12]: 9.28 µM (active) | AC50 [13]: 11.7 µM (active) | EC50 [14]: > 32 µM (inactive) | AC50 [15]: 15.7 µM (active) | AC50 (A-375): 26.3 µM (active) | AC50 (INS1): 3.42 µM (active)

Cc1ccc(OCc2cc(C(=O)NCc3cnn(-c4cccc(F)c4)c3)no2)cn1
EC50 [4]: > 160 µM (inactive) | EC50 [5]: 0.964 µM (active) | EC50 [1]: 0.195 µM (active)

O=c1c(-c2ccccc2)coc2c(CN3CCCC3)c(O)ccc12
IC50 [16]: > 64 µM (inactive) | AC50 (CAAX prenyl protease 2 [8]): 16.2 µM (active)
